Experimental data: patent US20050118572A1, “Single cell assessment of viral infection/replication” (The Board of Trustees of the Leland Stanford Junior …, priority 2002, published 2005)

Key:
[1] = system: uninfected CD4 T cells and CD8 T cells; format: cell-based, human
Procedure: (§1) PBMC were infected with a high HIV-1 dose, incubated for three days with indicated concentrations of Gd-Tex, and assessed for annexin-V by flow cytometry. Live CD3 cells were gated and apoptotic percentages quantified for CD4 and CD8 cells.
At Gd-Tex doses below 250 µM, GSH depletion and Gd-Tex toxicity in CD8 T cells and uninfected CD4 T cells was minimal. […] These findings are shown in FIG. 4-5, in which data are shown for subset-defining cell surface marker expression, HIV infection, intracellular GSH and Gd-Tex toxicity (induction of apoptosis and the breaking of the cell permeability barrier), all measured simultaneously for individual cells by 11-color, 13-parameter Hi-D FACS.

glutathione (GSH) = experiment: Intracellular glutathione levels by monochlorobimane fluorescence (flow cytometry); format: cell-based, human
Procedure: PBMC were isolated and HIV-1 infected as described in materials and methods. Intracellular glutathione levels were assessed using monochlorobimane fluorescence and samples were analyzed by flow cytometry.

[2] = system: HIV-1 infected CD4 T cells; experiment: Killing / apoptosis (annexin-V, intracellular p24, EMA) of HIV-1 infected CD4 T cells by FACS; format: cell-based, human
Procedure: as §1
PBMC were infected with high and low HIV-1 doses and treated for six days with the indicated concentrations and processed as indicated above.
Live CD4 T cells were gated and analyzed for annexin-V and p24 stain.
IL-2 activated, HIV-infected cultures were treated with Gd-Tex at the indicated concentrations for 6 days and processed for flow cytometry. […] Histograms are representative of 4 independent experiments.

HIV-1 = HIV-1 infected PBMC, TCID50=300/1×10^6 cells, FIG. 5

## CC(=O)[O-].CC(=O)[O-].CCc1c(CC)c2cc3nc(cnc4cc(OCCOCCOCCOC)c(OCCOCCOCCOC)cc4ncc4nc(cc1[n-]2)C(CCCO)=C4C)C(C)=C3CCCO.O.[Gd+3] [Gd-Tex, motexafin gadolinium]
[1]
  Gd-Tex toxicity in CD8 T cells and uninfected CD4 T cells: minimal
  Killing of uninfected CD4 T cells and CD8 T cells: did not kill
Glutathione (GSH); Gd-Tex doses below 250 µM
  GSH depletion in CD8 T cells and uninfected CD4 T cells: minimal
Glutathione (GSH); high doses of Gd-Tex
  GSH depletion in T cells in PBMC: depleted GSH
[2]; 3 uM Gd-Tex
  Killing of HIV-infected (p24+) CD4 T cells: selectively killed
[2]; 50 μM Gd-Tex, 6 days
  p24 cells among live CD4 T cells infected with HIV-1: decrease of p24 cells
[2]; Gd-Tex concentrations not cytotoxic to uninfected cells
  Apoptosis induction in HIV-1 infected CD4 T cells: selectively induced apoptosis
HIV-1
  HIV-1 production (RT activity, p24 levels): inhibition of HIV-1 production
